# In patent US9187784B2, “EphA4 is a disease modifier in motor neuron disease” (VIB VZW, priority 2011, dated 2015):
# Marks after values point to notes of the source that are not given here.
# System: TDP43A315T embryos
# Experiment: mutant TDP-43-induced motor axonopathy in zebrafish embryos
# Type: in vivo
# Experimental: FIG. 14: Inhibiting EphA4 signaling rescues motor axonopathies induced by overexpression of mutant TDP-43 and knockdown of Smn. Y-axes show motor axon length of zebrafish embryos (30 hpf) expressing TDP^WT (black bar) or TDP^A315T (white bar) (Panels A, B) or with unaltered (black bar) or reduced expression levels of Smn (white bar) (Panels C, D). Smn knockdown was established by injection of 3 ng (Panel C) or 6 ng (Panel D) atg-smn morpholino. Ctr-smn morpholino was injected as control. RTK1 signaling was inhibited by injection of 3 ng atg-RTK1 morpholino (shaded bars) (Panels A, C) or by treatment with C1 (500 μM, shaded bars) (Panels B, D). Injection of ctr-RTK1 morpholino and application of a 1/250 dilution of DMSO were used as control. ANOVA and Bonferroni's multiple comparison tests were used for statistical analysis: TDP^A315T/atg-RTK1 (n=24) vs. TDP^A315T/ctr-RTK1 (n=34, p=7.86×10^−5, Panel A), TDP^A315T/C1 (n=21) vs. TDP^A315T/DMSO (n=21, p=0.045, Panel B), atg-smn/atg-RTK1 (n=35) vs. atg-smn/ctr-RTK1 (n=35, p=4.93×10^−8, Panel C), atg-smn/C1 (n=91) vs. atg-smn/DMSO (n=105, p=1.27×10^−6, Panel D). Error bars are s.e.m.
# Mann-Whitney test was used to determine significance between TDPA315T/ctr-RTK1 (4.5 ng) vs. TDPA315T/atg-RTK1 (4.5 ng, * p=0.001) and between TDPA315T/control vs. TDPA315T/C1 (° p=0.029). Control=1/250 DMSO and C1=500 μM.
# A morpholino database of translation-blocking morpholinos (atg-mo) was used to perform a morpholino-based knockdown screening in a zebrafish model for ALS.^13 The standard control morpholino (5′-[…]-′3) (SEQ ID NO:4), provided by Gene tools, was used as control. Three nanograms of morpholino were co-injected with […] of SOD1 mRNA and the effect of gene knockdown on the mutant SOD1-induced axonopathy analyzed. Each morpholino was tested in two separate experiments. Only morphologically normal embryos were included for further analysis. Overexpression of SOD1 or TDP-43, applied to validate the protective morpholino, was established by injection of 1.76 ng SOD1 mRNA or 1.43 ng TDP-43 mRNA, respectively. Antisense morpholinos to knockdown zebrafish RTK1, RTK2, Smn and their five base pair-mismatch control morpholinos were developed by Gene tools: atg-RTK1 (5′-[…]-′3) (SEQ ID NO:5), atg-RTK2 (5′-[…]-[…]-′3) (SEQ ID NO:6), splice-RTK2 (5′-[…]-[…]-′3) (SEQ ID NO:7) and atg-smn (5′-[…]-3′) (SEQ ID NO:8). Compound 1 (2,5-dimethylpyrrolyl benzoic acid, Matrix Scientific) dissolved in DMSO was added to the water of 6-hpf-old zebrafish embryos.
Compound,"% affected embryos (TDPA315T embryos, morpholino 4.5 ng)","% affected embryos (TDPWT embryos, morpholino 4.5 ng)",effect on outgrowth deficit and aberrant branching induced by mutant TDP-43 (zebrafish embryos),"% affected embryos (TDPA315T embryos, C1 500 μM)","% affected embryos (TDPWT embryos, C1 500 μM)"
5′-CTGTGAACACAAGCGCAGCCATTGG-′3 (all phosphorodiamidate morpholino (PMO)) [atg-RTK1],11* (43) %,9 (42) %,rescued the outgrowth deficit and aberrant branching induced by mutant TDP-43,,
Cc1ccc(C)n1-c1ccc(C(=O)O)c(O)c1 [Compound C1],,,,25° (16) %,33 (36) %
